{"source": "patent US9061079B2", "about": "“Peptides that home to atherosclerotic plaques and methods of use” (Sanford-Burnham Medical Research Institute, priority 2011, dated 2015)", "key": {"[1]": {"tested_on": "porcine iliofemoral arteries", "conditions": "arteries infected with adenoviral vector encoding tk, then exposure to ganciclovir; cited from earlier work"}, "[2]": {"tested_on": "cells released from plaques", "assay": "FACS analysis of cells released from plaques after in vivo circulation of FAM-peptides", "parameters": "species or system mice (ApoE-null)", "conditions": "for % of FAM positive cells among cells released from plaques: after 4 hours in vivo circulation", "description": "(§1) Atherosclerotic plaques in male and female mice homozygous for the ApoetmlUnc mutation (ApoE-null mice) (The Jackson Laboratory) were induced by maintaining the mice on a high fat diet (Reddick et al., Arterioscler. Thromb. 14:141-147 (1994); Maeda et al., Atherosclerosis 195:75-82 (2007)) for 6 to 8 months. Healthy aortas were obtained from age-matched C7BL/6 wild-type mice fed on a normal diet. The mice were housed and all procedures performed with the approval and according to standards of the University of California, Santa Barbara and University of California, Davis Institutional Animal Care and Use Committees. To test peptide homing, the mice were injected intravenously via retro-orbital under isoflurane inhalation (isoflurane 2% to 3% vol/vol+2 L/min O2) anesthesia and, when applicable, subsequently perfused with high glucose DMEM through the left ventricle to remove unbound reagent. Tissues were excised and left unfixed or fixed with 4% paraformaldehyde.\nCells from plaques and other tissues were released into suspension by 2-hour incubation at 37° C. in a tissue digestion cocktail containing 450 U/mL collagenase type 1 (Worthington Biochemical), 1 mg/mL soybean trypsin inhibitor (Worthington Biochemical), 4.7 U/mL elastase (Worthington Biochemical), 1 mg/mL DNase 1 (Sigma Aldrich) and 0.5% fetal calf serum (FCS). CD11b PE-Cy5 (rat monoclonal, eBioscience) was used to identify monocytes/macrophages. Positive cells were quantified on GUAVA FACS instrument (Millipore) and data were analyzed using FCS Express Version 3 (De Novo Software).\nTo detect peptide homing to plaques, the distribution of intravenously injected peptides that had been labeled with fluorescein ([…]; FAM) were analyzed. […] Staining with an anti-fluorescein antibody confirmed the presence of LyP-1 in the plaques. For comparison, mice were also injected with a peptide previously shown to home to plaques, CREKA (SEQ ID NO:4) (Peters et al., Proc. Natl. Acad. Sci. USA 106:9815-9819 (2009)). […]"}, "atherosclerotic plaques [3]": {"tested_on": "atherosclerotic plaques", "assay": "Effect of treatment on plaque formation", "type": "in vivo, mice (ApoE null)", "conditions": "200 μg intraperitoneally three times a week for one month, high-fat diet", "method": "(§2) The effect of LyP-1 treatment on plaque formation was tested. ApoE null mice fed a high-fat diet for 5 months were treated with intraperitoneal injections of 200 μg of LyP-1 or control peptide ([…]; SEQ ID NO:6) three times a week for one month (while continuing their diet)."}, "dermatitis": {"tested_on": "dermatitis", "assay": "Treatment of dermatitis in ApoE-null mice on high-fat diet", "type": "in vivo", "method": "The effect of LyP-1 treatment on dermatitis was tested. ApoE-null mice that were on a high-fat diet and suffered from severe dermatitis refractory to topical antibiotic treatment were treated with intraperitoneal injections of 200 μg of LyP-1 or control peptide ([…]; SEQ ID NO:6) three times a week for one month (while continuing their diet). The condition of the skin before and after the treatment was recorded in photographs. […] Thus, LyP-1 treatment improves dermatitis.\nThe effect of LyP-1 on skin dermatitis correlates with reduced in p32 expression and macrophage accumulation. Mice treated as above in FIG. 19 were intravenously injected with 100 μL of 1 mM fluorescein-labeled LyP-1 and peptide was allowed to circulate for 2 hours. Sections of skin biopsies obtained before and after 4 weeks of LyP-1 treatment were analyzed."}, "bone marrow cells": {"tested_on": "bone marrow cells", "assay": "Peptide binding ex vivo (FACS)", "type": "cell-based, mice (ApoE)", "conditions": "1 nmol FAM-peptide, 10 min on ice", "method": "Bone marrow cells were isolated from the tibias and femurs of ApoE mice on high fat diet by flushing high glucose DMEM media (Gibco) using an 18 gauge needle and passed through a 70 μm nylon mesh cell strainer (BD).\n(§3) Dead cells were first removed from the cell suspension released from aorta, isolated macrophages from 4T1 tumors and spleen and bone marrow cells using Dead cell removal kit (Miltenyi Biotec). Cells were incubated with 1 nmol of either FAM-LyP-1 or FAM-ARAL (SEQ ID NO:5) for 10 min on ice. After washing, the cell pellets were resuspended in buffer containing 1 μg propidium iodide. Cells positive for FAM and propidium iodide staining were quantified on GUAVA FACS instrument (Millipore) and data were analyzed using FCS Express Version 3 (De Novo Software). The % of viable cells after dead cell removal in each case was >75%."}, "atherosclerotic plaques [4]": {"tested_on": "atherosclerotic plaques", "assay": "Homing of intravenously injected FAM-labeled peptides to plaques, fluorescence histology of aorta sections", "type": "in vivo, mice (ApoE-null)", "conditions": "for accumulation in plaque tissue (fluorescence of aorta sections): atherosclerotic ApoE-null mice, 100 μg FAM-peptide intravenously, 1 hour circulation", "description": "as §1\nFresh frozen OCT-embedded tissue was sectioned at 7 μm, fixed with ice cold acetone, blocked with 4% serum in PBS, and stained with antibodies. The following antibodies were used: anti-mouse p32 (rabbit polyclonal; (Fogal et al., supra (2008)), CD68 (rat monoclonal, eBioscience), CD11b (rat monoclonal, eBioscience), CD31 (rat monoclonal, eBioscience), podoplanin (hamster monoclonal, eBioscience), LYVE-1 (rat monoclonal, eBioscience), anti-FITC-HRP (goal polyclonal, ACRIS). Purified rat IgG2a K isotype control (BD Pharmingen), normal rabbit IgG (R&D) and normal goat IgG (R&D) were used as controls. The following secondary antibodies from Invitrogen were used for detection: goat anti-rat 488/546, goat anti-rabbit 488/546, donkey anti-goat 488/546, goat anti-hamster 546 and goat anti-rat 647. Primary antibodies were incubated for 1 to 4 hours at room temperature, or at 4° C. to detect cell surface expression. Stained tissue sections were mounted in Vectorshield DAPI-containing mounting media (Vector lab). […]\nTissue sections were examined under a FluoView™ 500 confocal laser-scanning microscope (Olympus) or BX60 fluorescence microscope with MiroFire camera (Olympus). Whole-tissue uptake of fluorescein-labeled peptides following in vivo circulation was imaged using a 530-nm viewing filter, Illumatool light source (Light Tools Research) and recorded with a Canon XTi DSLR camera.\nTo detect peptide homing to plaques, the distribution of intravenously injected peptides that had been labeled with fluorescein ([…]; FAM) were analyzed. […]\nAtherosclerotic mice were injected with 100 μg of FAM-LyP-2 and the probe was allowed to circulate for 1 hour. Following 1 hour of circulation, the aorta was collected and the peptide was detected in tissue sections by fluorescence detection."}, "4T1 tumors": {"tested_on": "4T1 tumors", "assay": "Treatment of 4T1 tumor mice with peptide, effect on tumor macrophages", "type": "in vivo, mice (BALB/c)", "conditions": "60 μg daily tail vein injections for 12 days, versus control peptide", "method": "The effect of LyP-1 peptide treatment of mice with tumors was tested. To produce 4T1 breast cancer tumors, normal female BALB/c mice were orthotopically injected into the mammary fat pad with 1×10^6 4T1 cells suspended in 100 μL of PBS. The mice were treated with daily tail vein injections of 60 μg of LyP-1 or control peptide ([…]; SEQ ID NO:6) for 12 days. […] Cell suspensions were prepared from 4T1 tumors from mice treated with LyP-1 or the control peptide. The tumors were incubated for 1 hour at 37° C. in a tissue digestion cocktail containing 2 mg/mL Collagenase IV (Worthington Biochem Corp) and 1 mg/mL DNAse 1 (Sigma) in high glucose DMEM media (Gibco). The resulting cell suspension was passed through 70 μm nylon mesh cell strainer (BD), and the live cells were double stained for cell surface p32 (rabbit anti-mouse p32, Fogal et al., supra (2008)) and macrophages (rat anti-mouse CD11b, ebioscience) and analyzed by FACS."}, "[5]": {"tested_on": "CD11b-positive macrophages from 4T1-tumors", "assay": "Peptide binding ex vivo (FACS)", "type": "cell-based, mice (BALB/c)", "conditions": "1 nmol FAM-peptide, 10 min on ice", "method": "(§4) To produce 4T1 tumors, normal female BALB/c mice were orthotopically injected into the mammary fat pad with 1×10^6 4T1 cells suspended in 100 μL of PBS. All animal experimentation received approval from the Animal Research Committee of University of California, Santa Barbara. Fully grown 4T1 tumors and control spleen were excised from the mice two weeks after inoculation, minced and incubated with tissue digestion cocktail containing 2 mg/mL Collagenase IV (Worthington Biochem Corp) and 1 mg/mL DNAse 1 (Sigma) solution in high glucose DMEM media (Gibco) at 37° C. for 1 hour. Cells were passed through 70 μm nylon mesh cell strainer (BD). CD11b-positive macrophages were isolated using the MACS CD11b-positive microbeads (Miltenyi Biotec).\nas §3"}, "[6]": {"tested_on": "monocytes/macrophages isolated from spleen", "assay": "Peptide binding ex vivo (FACS)", "type": "cell-based, mice", "conditions": "1 nmol FAM-peptide, 10 min on ice", "method": "as §4, §3"}, "plaque macrophages": {"tested_on": "plaque macrophages", "assay": "Effect of treatment on plaque macrophages (FACS of cells released from plaques)", "type": "in vivo, mice (ApoE null)", "conditions": "after 4 weeks of treatment, versus control-treated aortas", "method": "as §2\nThe effect of LyP-1 treatment on plaque macrophages was tested."}, "[7]": {"tested_on": "primary cells released from plaques", "assay": "Peptide binding ex vivo (FACS)", "type": "cell-based, mice (ApoE-null)", "conditions": "1 nmol FAM-peptide, 10 min on ice", "method": "as §3"}, "mitochondrial membranes": {"tested_on": "mitochondrial membranes", "conditions": "concentration of 10 μM; cited from earlier work"}, "[8]": {"conditions": "after 4 weeks of treatment, versus control-treated mice"}, "[9]": {"conditions": "100 μL of 1 mM intravenously, 2 hours circulation"}}, "note": "Ends that are not written are not given here. FAM = fluorescein label", "data": [{"compound": "Nc1nc(O)c2ncn(COC(CO)CO)c2n1", "note": "[ganciclovir]", "values": [{"measurement": "reduction of neointimal thickening following balloon injury", "setting": "[1]", "value": "50-87%"}]}, {"compound": "ARALPSQRSR", "values": [{"measurement": "% of FAM positive cells among cells released from plaques", "setting": "[2]", "value": "7.5±4.1", "unit": "%"}]}, {"compound": "CGNKRTRGC (disulfide (positions not given here); not fully specified (bridges); also: cyclic, kind not given here) [LyP-1]", "values": [{"measurement": "plaque formation in excised ascending and descending aorta", "setting": "atherosclerotic plaques [3]", "value": "reduced plaque formation"}, {"measurement": "skin condition (dermatitis)", "setting": "dermatitis; 200 μg intraperitoneally three times a week for one month", "value": "significant improvement of their skin condition"}, {"measurement": "cells positive for CD11b and p32 in skin", "setting": "dermatitis; [8]", "value": "smaller numbers of cells positive for CD11b and p32"}, {"measurement": "skin thickness of healed dermatitis skin", "setting": "dermatitis; [8]", "value": "reduced thickness"}, {"measurement": "binding to bone marrow cells", "setting": "bone marrow cells", "value": "little binding"}, {"measurement": "accumulation in healthy aortas and non-aortic tissues of the atherosclerotic mice", "setting": "atherosclerotic plaques [4]; intravenous FAM-peptide", "value": "no significant accumulation"}, {"measurement": "macrophages positive for cell surface p32 in 4T1 tumors", "setting": "4T1 tumors", "value": "reduced"}, {"measurement": "total number of macrophages (CD11b-positive cells) in 4T1 tumors", "setting": "4T1 tumors", "value": "reduced"}, {"measurement": "binding to CD11b-positive macrophages from 4T1-tumors", "setting": "[5]", "value": "significant binding"}, {"measurement": "binding to monocytes/macrophages isolated from spleen", "setting": "[6]", "value": "little binding"}, {"measurement": "percentage of total macrophages (p32-positive and negative) among cells released from plaques", "setting": "plaque macrophages", "value": "lower percentage of total macrophages"}, {"measurement": "binding to primary cells released from plaques", "setting": "[7]", "value": "significant binding"}]}, {"compound": "CREKA", "values": [{"measurement": "CD11b-positive plaque cells positive for peptide uptake", "setting": "[2]; 4 hours after intravenous injection", "value": "taken up by a small number of CD11b-negative cells"}, {"measurement": "% of FAM positive cells among cells released from plaques", "setting": "[2]", "value": "18.1±4.6", "unit": "%"}]}, {"compound": "D(KLAKLAK)2 (KLAKLAKKLAKLAK; D-amino acids)", "values": [{"measurement": "mitochondrial swelling", "setting": "mitochondrial membranes", "value": "marked mitochondrial swelling"}]}, {"compound": "FAM-ARALPSQRSR: control peptide ARALPSQRSR labeled with FAM ({FAM}-ARALPSQRSR) [reference compound]", "values": [{"measurement": "accumulation in plaque tissue (fluorescence of aorta sections)", "setting": "atherosclerotic plaques [4]", "value": "did not accumulate in the plaques"}]}, {"compound": "FAM-CREKA: CREKA peptide labeled with fluorescein (FAM) ({FAM}-CREKA) [reference compound]", "values": [{"measurement": "accumulation in plaque tissue (fluorescence of aorta sections)", "setting": "atherosclerotic plaques [4]", "value": "essentially confined to the surface of the plaques"}]}, {"compound": "FAM-LyP-1: LyP-1 peptide labeled with fluorescein (FAM) ({FAM}-CGNKRTRGC; disulfide (positions not given here); not fully specified (bridges); also: cyclic, kind not given here)", "values": [{"measurement": "peptide homing to healed dermatitis skin from LyP-1-treated mice", "setting": "dermatitis; [9]", "value": "attenuated LyP-1 homing"}, {"measurement": "peptide homing to inflamed skin from control-treated mice", "setting": "dermatitis; [9]", "value": "robust LyP-1 homing"}, {"measurement": "peptide homing to normal skin", "setting": "dermatitis; [9]", "value": "no LyP-1 homing"}, {"measurement": "accumulation in plaque tissue (fluorescence of aorta sections)", "setting": "atherosclerotic plaques [4]", "value": "extensive accumulation of FAM-LyP-1 inside the plaque tissue"}]}]}
